Assay results published in patent publication US20180263985A1, “MODULATORS OF TOLL-LIKE RECEPTORS FOR THE TREATMENT OF HIV” (Gilead Sciences, Inc., priority 2015, published 2018).

Test system: DCs
Assay: Immune cell activation in PBMC cultures, flow cytometry: DCs
Format: cell-based, human
Details: for DCs CD80 Fold / DCs CD69 Fold: 2 days, N = 4
Experimental: TLR8 is expressed on multiple immune cell subsets. To determine how treatment with a TLR8 modulating compound affects activation of distinct cell populations, PBMCs were purified from HIV-1 infected subjects on cART, as described in Example 121 (anonymized participant IDs 184, 185, 188, 189, 190, and 191). […] After incubation, PBMCs were harvested and stained with antibodies conjugated to specific fluorophores (BD Biosciences) to delineate immune cell subsets: CD4 T cells (CD3+CD4+CD8−), CD8 T cells (CD3+CD8+CD4−), NK cells (CD3−CD56+CD16+), monocytes (CD3−CD14+), B cells (CD3−CD19+), and peripheral dendritic cells (DCs), defined as positive for HLA-DR and negative for a panel of markers: CD3, CD14, CD16, CD19, CD20, CD56 (Lin-1 lineage panel, BD Biosciences).
Additional markers of activation, maturation, and effector function were included for cell subsets, as follows: CD4 and CD8 T cells (CD25, CD38, CD69, IFN-γ, granzyme B, perforin, TNF-α), NK cells (CD25, CD69, IFN-γ), monocytes (CD11c, CD16, CD80, CD86, CD163, TNF-α), B cells (CD40, CD69, CD80, CD86), and DC (CD11c, CD69, CD80, CD86, CD123, and CD163). Cells were stained for surface markers (CD3, CD4, CD8, CD11c, CD14, CD16, CD25, CD69, CD80, CD86, CD163), washed, treated with fixation and permeabilization buffer (eBioscience), and stained for intracellular markers (IFN-γ, granzyme B, perforin, TNF-α). Cells were evaluated by flow cytometry on a LSR Fortessa (BD Biosciences), and data was analyzed with FlowJo software (TreeStar).
Data are expressed as geometric mean percentage (%) and as geometric mean fold-activation (Fold) for each marker and for each PBMC subset obtained from 4 or 6 subjects, as indicated. Fold activation is calculated as a ratio of the % positive for each marker for each PBMC subset at the indicated concentration of the compound of Example 15 relative to % positive for DMSO treated samples. Fold activations that are 1.5 are in bold.

**Q.** With CCCC[C@H](CO)Nc1nc(N)nc2cccnc12 [Example 15] as the compound, how does the “DCs CD80 Fold” value (10 nM vs DMSO) read?
**A.** 1.8 fold

**Q.** And the “DCs CD69 Fold” value (100 nM vs DMSO)?
**A.** 0.4 fold

**Q.** And the “DCs CD80 Fold” value (100 nM vs DMSO)?
**A.** 2.4 fold

**Q.** And the “DCs CD69 Fold” value (1000 nM vs DMSO)?
**A.** 3.3 fold

**Q.** What about the “DCs CD80 Fold” value (1000 nM vs DMSO) of the same compound?
**A.** 2.9 fold

**Q.** What about the “DCs CD69 Fold” value (3000 nM vs DMSO) of the same compound?
**A.** 8.9 fold

**Q.** What about the “DCs CD80 Fold” value (3000 nM vs DMSO) of the same compound?
**A.** 2.0 fold

**Q.** And the “Concentration of maximal activation of DCs” value (increased expression of CD69)?
**A.** 3000 nM

**Q.** What about the “Concentration of maximal activation of DCs” value (increased expression of CD80) of the same compound?
**A.** 1000 nM
